In ChEMBL document CHEMBL1157978, “In vivo wound-healing activity of oleanolic acid derived from the acid hydrolysis of Anredera diffusa” (2006) one finds Activity and ED50 data, which are given here for two compounds.

Each structure is given as a SMILES string.

Format in all cases: functional
Assay [1] relates to Mus musculus. The experiment in a line: Cicatrizant activity against mouse measured by wound breaking strength at 50 mg/ml administered every 12 hrs measured after 48 hrs relative to control.
The subject of assay [2] is Mus musculus. The experiment in a line: Cicatrizant activity against mouse assessed as wound breaking strength per gram of body weight administered every 12 hrs measured after 48 hrs relative to control.
In assay [3] the test system is Mus musculus. In words: Cicatrizant activity against mouse measured by wound breaking strength at 50 ug/g administered every 12 hrs measured after 48 hrs relative to control.
For assay [4], the system named is Mus musculus. In words: Cicatrizant activity against mouse measured by wound breaking strength at 30 ug/g administered every 12 hrs measured after 48 hrs relative to control.
Assay [5] concerns Mus musculus. The experiment in a line: Cicatrizant activity against mouse measured by wound breaking strength at 60 ug/g administered every 12 hrs measured after 48 hrs relative to control.
Assay [6] deals with Mus musculus. In words: Cicatrizant activity against mouse measured by wound breaking strength at 40 ug/g administered every 12 hrs measured after 48 hrs relative to control.
In assay [7] the test system is Mus musculus. In words: Cicatrizant activity against mouse measured by wound breaking strength at 12.5 mg/ml administered every 12 hrs measured after 48 hrs relative to control.

Consider `CC(C)=CCC[C@@](C)(O)[C@@H]1CC=C(C)CC1`, for which the Activity in assay [1] is 17.6%. In addition, in assay [2], the ED50 was 155 µg.
As for `CC1(C)CC[C@]2(C(=O)O)CC[C@]3(C)C(=CC[C@@H]4[C@@]5(C)CC[C@H](O)C(C)(C)[C@@H]5CC[C@]43C)[C@@H]2C1` [OLEANOLIC_ACID], the Activity in assay [3] is 30.9%; in assay [4], 25.4%; in assay [5], 26.2%; in assay [6] it was 39.3%; in assay [7] it was 42.9%.
